PMC9608663, “Anti-Alzheimer and Antioxidant Effects of Nelumbo nucifera L. Alkaloids, Nuciferine and Norcoclaurine in Alloxan-Induced Diabetic Albino Rats” (Pharmaceuticals, 2022)
Where “and” joins values, the source holds several entries; their conditions need not be identical. Identical values can stand only once.

Experiments:
[1] = test system: reduced glutathione (GSH); experiment: Reduced glutathione assay (GSH) in blood of diabetic rats; format: in vivo, albino rats (Sprague–Dawley); settings: 10 mg/kg, 15 days
Description: (§1) The rats were divided into seven groups (six rats in each group). Normal and diabetic control groups I and II, standard glibenclamide (10 mg/kg) group III, N. nucifera crude (100–200 mg/kg) groups IV and V and nuciferine and norcoclaurine (10 mg/kg) group VI and VII. Rats were anesthetized after 15 days and their organ sections were collected for different activities. Blood was collected from each rat and centrifuged at 4000 rpm for 10 min for antioxidant enzyme activities. The brain was homogenized in 100 mM Tris buffer (Sigma, Hamburg, Germany) (pH 8.0).
GSH assay was carried out by mixing the blood serum with substrate DTNB by the modified method of Biessels.

[2] = biological target: T1, acetylcholinesterase (AChE) (Rattus norvegicus, UniProt P37136); experiment: AChE activity in brain regions of diabetic rats; format: in vivo; settings: 10 mg/kg, 15 days; for AChE activity, Cerebellum: cerebellum homogenate; for AChE activity, Cerebral Cortex: cerebral cortex homogenate; for AChE activity, Hippocampus: hippocampus homogenate; for AChE activity, Hypothalamus: hypothalamus homogenate; for AChE activity, Striatum: striatum homogenate
T1 construct: from tissue; host or cells: rat brain homogenate (cerebral cortex, cerebellum, hypothalamus, striatum, hippocampus)
T1 sequence (P37136 32-614): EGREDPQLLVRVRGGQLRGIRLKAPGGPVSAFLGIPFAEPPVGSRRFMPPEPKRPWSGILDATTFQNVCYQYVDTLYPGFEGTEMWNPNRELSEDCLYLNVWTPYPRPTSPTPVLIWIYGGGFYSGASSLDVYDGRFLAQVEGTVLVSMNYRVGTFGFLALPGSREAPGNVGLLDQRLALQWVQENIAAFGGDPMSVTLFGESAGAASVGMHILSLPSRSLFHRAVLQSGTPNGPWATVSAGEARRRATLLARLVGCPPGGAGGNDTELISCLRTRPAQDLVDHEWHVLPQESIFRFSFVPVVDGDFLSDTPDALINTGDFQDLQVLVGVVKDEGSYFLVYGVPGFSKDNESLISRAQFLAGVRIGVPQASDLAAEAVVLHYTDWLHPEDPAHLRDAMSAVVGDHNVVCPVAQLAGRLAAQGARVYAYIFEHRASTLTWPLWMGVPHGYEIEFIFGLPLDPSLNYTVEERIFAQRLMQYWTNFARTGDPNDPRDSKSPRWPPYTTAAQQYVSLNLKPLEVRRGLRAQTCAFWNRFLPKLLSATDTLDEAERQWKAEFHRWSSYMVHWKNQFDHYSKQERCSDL
Description: as §1
(§2) In the brain (hippocampus, cerebellum, hypothalamus, striatum and cerebral cortex) and in the blood, AChE activity was measured using calorimetric method with slight modification. The sample of 0.1 mL brain homogenate as well as blood serum (containing 100 mM potassium phosphate buffer (pH 7.5), 1 mM DTNB and 0.8 mM […] (Sigma, Hamburg, Germany) were tested as AChE enzyme. The increase in enzyme activity was measured at 412 nm after the formation of the yellow-colored anion of 4, 4-ditheo-bis-nitrobenzoic acid and experiments were performed in triplicates.

[3] = test system: glutathione peroxidase (GPx); experiment: Glutathione peroxidase assay (GSH-Px) in blood of diabetic rats; format: in vivo, albino rats (Sprague–Dawley); settings: 10 mg/kg, 15 days
Description: as §1
Glutathione peroxidase assay was carried out by reaction mixtures of 0.1 mL blood serum with 1.49 mL phosphate buffer (pH 7.4), 0.1 mL EDTA, 0.1 mL sodium azide, 0.1 mL NADPH, 0.05 mL GSH and 0.01 mL H2O2. The intensity of color loss of NADPH was measured at 340 nm.

[4] = Body weight of alloxan-induced diabetic rats; format: in vivo, albino rats (Sprague–Dawley); settings: 10 mg/kg b.w./day
Description: (§3) Forty-two (42) fully matured albino rats (200–250 g b.w.) of Sprague–Dawley types were purchased from National Institute of Health, Islamabad, Pakistan and kept under normal conditions for 15 days with 12-h dark/light rotation.
(§4) Alloxan monohydrate injection (100 mg/kg) was applied to experimental rats to induce diabetic conditions followed by giving 5% glucose water for 28 h in order to decrease the death probability in alloxan-induced rates from hyperglycemic shock. Over 300 mg/dL (3 mg/mL) blood glucose level (fasting blood plasma) was considered diabetic and a selective parameter for further study.
as §1

[5] = test system: superoxide dismutase (SOD); experiment: Superoxide dismutase assay (SOD) in blood of diabetic rats; format: in vivo, albino rats (Sprague–Dawley); settings: 10 mg/kg, 15 days
Description: as §1
Superoxide dismutase activity was determined by an assay mixture containing 0.3 mL blood sample, 1.2 mL sodium pyrophosphate, 0.1 mL phenazine methosulphate and 0.2 mL NADH. The reaction was stopped within a minute by adding 1 mL of glacial acetic acid and the concentration of product was monitored at 560 nm.

[6] = test system: acetylcholinesterase (AChE); format: in vivo; settings: blood of diabetic rats, 10 mg/kg, 15 days; table title: AChE activity, µmol AcSCh/h/mg of protein
Description: as §1, §2

[7] = test system: alloxan-induced diabetic rats; experiment: Blood glucose level in alloxan-induced diabetic rats; format: in vivo, albino rats (Sprague–Dawley); settings: 10 mg/kg b.w./day
Description: as §3, §4, §1

[8] = test system: lipid peroxidation (TBARS); experiment: Lipid peroxidation assay (TBARS) in blood of diabetic rats; format: in vivo, albino rats (Sprague–Dawley); settings: 10 mg/kg, 15 days
Description: as §1
The lipid peroxidation activity in the blood sample was determined by slight modification in Sohal’s method. The reaction mixtures containing homogenate sample (0.2 mL) in 0.1 M phosphate buffer pH 7.4 (0.58 mL), ferric chloride (0.02 mL) and ascorbic acid (0.2 mL). The reaction mixture was incubated at […] for 1 h and stopped the reaction by adding 10% trichloro-acetic acid. The reaction mixture was continuously boiled, shaken for 20 min in a water bath and centrifuged for 10 min. The formation of TBARS was monitored at wavelength of 535 nm.

catalase (CAT) = experiment: Catalase assay (CAT) in blood of diabetic rats; format: in vivo, albino rats (Sprague–Dawley); settings: 10 mg/kg, 15 days
Description: as §1, with “8.0). Protein variation for several brain structures was measured followed by protein determination of striatum (0.3 mg/mL), hippocampus (0.6.0 mg/mL), cerebellum (0.7 mg/mL) and hypothalamus (0.4 mg/mL and cerebral cortex (0.8.0 mg/mL)).” for “8.0).”
Catalase activity was determined in blood samples by modified method of Chance and Maehly. The assay mixture comprised 0.1 mL blood serum, 2.5 mL phosphate buffer (pH 5) and 0.4 mL H2O2 while the absorbance was measured at 240 nm.

Row | Structure (SMILES) | GSH [1] [GSH/mg Protein] | AChE activity, Cerebellum [2] | AChE activity, Cerebral Cortex [2] | AChE activity, Hippocampus [2] | AChE activity, Hypothalamus [2] | AChE activity, Striatum [2] | GPx [3] [nmol NADPH/min/mg Protein] | Variations in Body Weight ([4]; day 0) [g] | Variations in Body Weight ([4]; day 5) [g] | Variations in Body Weight ([4]; day 10) [g] | SOD [5] [SOD/mg Protein] | AChE activity [6] [%] | Blood Glucose Level ([7]; day 0) [mg/mL] | Blood Glucose Level ([7]; day 5) [mg/mL] | Blood Glucose Level ([7]; day 10) [mg/mL] | Blood Glucose Level ([7]; day 15, 10 mg/kg/day) [mg/mL] | TBARS [8] [nmol MDA/mg Protein] | CAT (catalase (CAT)) [E/min/mg Protein] | Variations in Body Weight ([4]; day 15, 10 mg/kg/day) | other results
1 | COc1ccc(Cl)cc1C(=O)NCCc1ccc(S(=O)(=O)NC(=O)NC2CCCCC2)cc1 [glibenclamide, reference compound] | 89.52 ± 4.74 | 50 ± 1.20 µmol AcSCh/h/mg of protein | 55 ± 2.06 µmol AcSCh/h/mg of protein | 43 ± 1.10 µmol AcSCh/h/mg of protein | 50 ± 2.15 µmol AcSCh/h/mg of protein | 46 ± 1.59 µmol AcSCh/h/mg of protein | 7.80 ± 1.6 | 180.11 ± 1.90 | 169.54 ± 2.41 | 171.23 ± 2.07 | 5.91 ± 0.3 | 45 ± 2.01 | 2.00 ± 1.85 | 1.54 ± 1.68 | 1.37 ± 1.20 | 0.94 ± 1.20 | 1.55 ± 0.8 | 6.45 ± 3.9 | – | Variations in Body Weight ([4]; day 15): 179.50 ± 1.40 g; Blood Glucose Level ([7]; day 15, listed as glibencamide, 10 mg/kg/day): 0.94 ± 1.20 mg/mL
2 | COc1cc2c3c(c1OC)-c1ccccc1C[C@H]3N(C)CC2 [nuciferine] | 86.96 ± 0.7 | 53 ± 1.70 µmol AcSCh/h/mg of protein | 56 ± 1.41 µmol AcSCh/h/mg of protein | 41 ± 1.10 µmol AcSCh/h/mg of protein | 55 ± 3.20 µmol AcSCh/h/mg of protein | 50 ± 1.90 µmol AcSCh/h/mg of protein | 7.98 ± 0.9 | 177.43 ± 4.19 | 161.97 ± 2.21 | 173.22 ± 2.67 | 7.1 ± 0.2 | 42 ± 7.43 | 2.05 ± 3.85 | 1.64 ± 2.51 | 1.42 ± 1.23 | 1.00 ± 1.45 | 1.60 ± 0.8 | 6.16 ± 0.7 | 182.33 ± 3.05 g and 177.33 ± 3.05 g | –
3 | Oc1ccc(CC2NCCc3cc(O)c(O)cc32)cc1 (stereo not shown) [norcoclaurine] | 76.68 ± 0.4 | 57 ± 1.40 µmol AcSCh/h/mg of protein | 60 ± 0.80 µmol AcSCh/h/mg of protein | 48 ± 0.20 µmol AcSCh/h/mg of protein | 60 ± 4.30 µmol AcSCh/h/mg of protein | 56 ± 0.90 µmol AcSCh/h/mg of protein | 6.70 ± 0.89 | 178.22 ± 7.61 | 159.85 ± 1.34 | 169.11 ± 3.01 | 6.2 ± 0.7 | 55 ± 1.23 | 2.10 ± 4.67 | 1.70 ± 3.25 | 1.58 ± 1.43 | – | 1.98 ± 0.9 | 5.1 ± 0.3 | 178.91 ± 1.32 g | Blood Glucose Level ([7]; day 15): 1.08 ± 3.15 mg/mL
